Literature values as cited in patent US12622900B2, “Methods and compositions for treating gastric ulcers” (LUODA PHARMA LIMITED, priority 2015, dated 2026).

How the values were obtained:
[1] = test system: gastric acid
[2] = test system: gastric ulcers; conditions: traditional oral dosing
[3] = test system: gastric acid secretion; conditions: single intramuscular injection at 1 mg/kg bodyweight, omeprazole monohydrate dissolved in saline

## COc1ccc2nc([S+]([O-])Cc3ncc(C)c(OC)c3C)[nH]c2c1 (stereo not drawn) [omeprazole, 6-methoxy-2-[(4-methoxy-3,5-dimethylpyridin-2-yl)methanesulfinyl]-1H-1,3-benzodiazole]
[1]; 1-2 g daily oral dose to horses
  Period for which the dose is effective: 12 to 24 h
[1]; oral omeprazole preparations in horses (Merritt et al)
  Duration of adequate gastric acid suppression: 12 h
[2]; in 28-35 days
  Gastric ulcers healed: 25%
[2]; within a 28 day treatment period
  Squamous ulcers that will heal: 70-80%
[3]
  Duration of pentagastrin-stimulated acid suppression: 12 h
  Duration of reduced basal acid secretion: around 23 hours
